Assay results from patent US10219513B2, “Safening 4-amino-3-chloro-6-(4-chloro-2-fluoro-3-methoxyphenyl)-5-fluoropyridine-2-carboxylic acid compositions in Brassica species and methods of use thereof” (Dow AgroSciences LLC, priority 2016, dated 2019).
“And” between values parts separate entries of the source, which are not always exact repeats. Identical values can stand only once.

Key:
[1] = system: Brassica napus (all varieties of canola and oilseed rape, BRSNN); assay: Greenhouse postemergence application, visual injury after 20-22 d, BRSNN
Procedure: (§1) Seeds of the desired test plant species were planted in Sun Gro MetroMix® 306 planting mixture, which typically has a pH of 6.0 to 6.8 and an organic matter content of about 30 percent, in plastic pots with a surface area of 103.2 square centimeters (cm^2). […] The plants were grown for 7-36 days (d) in a greenhouse with an approximate 14-hour (h) photoperiod which was maintained at about 23° C. during the day and 22° C. during the night. Nutrients and water were added on a regular basis and supplemental lighting was provided with overhead metal halide 1000-Watt lamps as necessary. The plants were employed for testing when they reached the second or third true leaf stage.
(§2) An aliquot of formulated benzyl 4-amino-3-chloro-6-(4-chloro-2-fluoro-3-methoxyphenyl)-5-fluoropyridine-2-carboxylate (florpyrauxifen-benzyl; 300 grams active ingredient per liter (g ai/L) suspension concentrate (SC)) was placed in a 25 mL glass vial and diluted in a volume of 1.25% (v/v) aqueous Agri-dex crop oil concentrated to obtain a stock solution. […] The concentrated stock solutions were diluted with an aqueous mixture of 1.25% v/v of aqueous Agri-dex crop oil concentrate to provide the appropriate application rates. Compound requirements are based upon a 12 milliliter (mL) application volume at a rate of 187 liters per hectare (L/ha). Stock solutions of the formulated materials were prepared following the same procedure. Spray solutions of the compound mixtures were prepared by adding the stock solutions to the appropriate amount of dilution solution to form a 12 mL spray solution. Formulated compounds were applied to the plant material with an overhead Mandel track sprayer equipped with 8002E nozzles calibrated to deliver 187 L/ha over an application area of 0.503 square meters (m^2) at a spray height of 18 inches (43 centimeters (cm)) above average plant canopy. Control plants were sprayed in the same manner with the solvent blank.
(§3) The treated plants and control plants were placed in a greenhouse as described above and watered by sub-irrigation to prevent wash-off of the test compounds. After 20-22 d, the condition of the test plants as compared with that of the control plants was determined visually and scored on a scale of 0 to 100 percent where 0 corresponds to no injury and 100 corresponds to complete kill. Colby's equation was used to determine the herbicidal effects expected from the mixtures.
(§4) Benzyl 4-amino-3-chloro-6-(4-chloro-2-fluoro-3-methoxyphenyl)-5-fluoropyridine-2-carboxylate (florpyrauxifen-benzyl, 300 g ai/L SC) was combined in two-, three-, and four-way mixtures with one or more of the following: clopyralid-olamine (as Lontrel™ 35A Herbicidal Concentrate), quinclorac (as Facet 75DF), isoxadifen-ethyl (100 g/L SC), cloquintocet-mexyl (120 g/L EC) or mefenpyr-diethyl (as mefenpyr-diethyl 15WP). The mixtures were applied to kale/Chinese kale (Brassica alboglabra, BRSAG), Juncea canola or brown mustard (Brassica juncea, BRSJU), rutabaga (Brassica napus var. napobrassica, BRSNA), all varieties of canola and oilseed rape (Brassica napus, BRSNN), Nexera™ canola (Brassica napus, BRSNN-NEX), winter oilseed rape (Brassica napus, BRSNW), Roundup Ready® canola (Brassica napus, RR-BRSNN), and turnip or Polish canola (Brassica rapa, BRSRR), and the phytotoxicity of the compositions was measured.
(§5) Colby's equation was used to determine the herbicidal effects expected from the mixtures evaluated in the described trials (Colby, S. R. Calculation of the synergistic and antagonistic response of herbicide combinations. Weeds 1967, 15, 20-22.).
(§6) The following equation was used to calculate the expected activity of mixtures containing two active ingredients, A and B: Expected=A+B−(A×B/100) • A=observed efficacy of active ingredient A at the same concentration as used in the mixture; • B=observed efficacy of active ingredient B at the same concentration as used in the mixture.

[2] = system: Brassica napus (winter oilseed rape, BRSNW); assay: Greenhouse postemergence application, visual injury after 20-22 d, BRSNW
Procedure: as §1, §2, §3, §4, §5, §6

[3] = system: Brassica juncea (Juncea canola or brown mustard, BRSJU); assay: Greenhouse postemergence application, visual injury after 20-22 d, BRSJU
Procedure: as §1, §2, §3, §4, §5, §6

[4] = system: Brassica napus (Roundup Ready canola, RR-BRSNN); assay: Greenhouse postemergence application, visual injury after 20-22 d, RR-BRSNN
Procedure: as §1, §2, §3, §4, §5, §6

[5] = system: Brassica alboglabra (kale/Chinese kale, BRSAG); assay: Greenhouse postemergence application, visual injury after 20-22 d, BRSAG
Procedure: as §1, §2, §3, §4, §5, §6

[6] = florpyrauxifen-benzyl 2.5 g ai/ha alone
[7] = florpyrauxifen-benzyl 5 g ai/ha alone
[8] = florpyrauxifen-benzyl 10 g ai/ha alone
[9] = florpyrauxifen-benzyl alone 2.5 g ai/ha
[10] = florpyrauxifen-benzyl alone 5 g ai/ha
[11] = florpyrauxifen-benzyl alone 10 g ai/ha
[12] = postemergence application, greenhouse, application rate (g ai/ha) varies

SMILES: COc1c(Cl)ccc(-c2nc(C(=O)OCc3ccccc3)c(Cl)c(N)c2F)c1F [Florpyrauxifen-benzyl, benzyl 4-amino-3-chloro-6-(4-chloro-2-fluoro-3-methoxyphenyl)-5-fluoropyridine-2-carboxylate]
- % Visual Injury Obs ([1]; BRSNN, 2.5 g ai/ha): 7%
- % Visual Injury Obs ([1]; BRSNN, 5 g ai/ha): 12%
- % Visual Injury Obs ([1]; BRSNN, 10 g ai/ha): 18%
- Obs % visual injury ([1]; BRSNN, florpyrauxifen-benzyl alone 2.5 g ai/ha): 7%
- Obs % visual injury ([1]; BRSNN, florpyrauxifen-benzyl alone 5 g ai/ha): 12%
- Obs % visual injury ([1]; BRSNN, florpyrauxifen-benzyl alone 10 g ai/ha): 18%
- % Visual Injury BRSNN Obs [1, 6]: 7%
- % Visual Injury Obs [1, 6]: 7%
- % Visual Injury BRSNN Obs [1, 7]: 12%
- % Visual Injury Obs [1, 7]: 12%
- % Visual Injury BRSNN Obs [1, 8]: 18%
- % Visual Injury Obs [1, 8]: 18%
- Obs % visual injury BRSNN [1, 9]: 7%
- Obs % visual injury BRSNN [1, 10]: 12%
- Obs % visual injury BRSNN [1, 11]: 18%
- % Visual Injury Obs ([2]; BRSNW, 2.5 g ai/ha): 8%
- % Visual Injury Obs ([2]; BRSNW, 5 g ai/ha): 13%
- % Visual Injury Obs ([2]; BRSNW, 10 g ai/ha): 18%
- Obs % visual injury ([2]; BRSNW, florpyrauxifen-benzyl alone 2.5 g ai/ha): 8%
- Obs % visual injury ([2]; BRSNW, florpyrauxifen-benzyl alone 5 g ai/ha): 13%
- Obs % visual injury ([2]; BRSNW, florpyrauxifen-benzyl alone 10 g ai/ha): 18%
- % Visual Injury BRSNW Obs [2, 6]: 8%
- % Visual Injury Obs [2, 6]: 8%
- % Visual Injury BRSNW Obs [2, 7]: 13%
- % Visual Injury Obs [2, 7]: 13%
- % Visual Injury BRSNW Obs [2, 8]: 18%
- % Visual Injury Obs [2, 8]: 18%
- Obs % visual injury BRSNW [2, 9]: 8%
- Obs % visual injury BRSNW [2, 10]: 13%
- Obs % visual injury BRSNW [2, 11]: 18%
- % Visual Injury BRSNW Obs [2, 12]: 8% and 13% and 18%
- % Visual Injury Obs ([3]; BRSJU, 2.5 g ai/ha): 7%
- % Visual Injury Obs ([3]; BRSJU, 5 g ai/ha): 12%
- % Visual Injury Obs ([3]; BRSJU, 10 g ai/ha): 18%
- Obs % visual injury ([3]; BRSJU, florpyrauxifen-benzyl alone 2.5 g ai/ha): 7%
- Obs % visual injury ([3]; BRSJU, florpyrauxifen-benzyl alone 5 g ai/ha): 12%
- Obs % visual injury ([3]; BRSJU, florpyrauxifen-benzyl alone 10 g ai/ha): 18%
- % Visual Injury BRSJU Obs [3, 6]: 7%
- % Visual Injury Obs [3, 6]: 7%
- % Visual Injury BRSJU Obs [3, 7]: 12%
- % Visual Injury Obs [3, 7]: 12%
- % Visual Injury BRSJU Obs [3, 8]: 18%
- % Visual Injury Obs [3, 8]: 18%
- Obs % visual injury BRSJU [3, 9]: 7%
- Obs % visual injury BRSJU [3, 10]: 12%
- Obs % visual injury BRSJU [3, 11]: 18%
- % Visual Injury Obs ([4]; RR-BRSNN, 2.5 g ai/ha): 6%
- % Visual Injury Obs ([4]; RR-BRSNN, 5 g ai/ha): 9%
- % Visual Injury Obs ([4]; RR-BRSNN, 10 g ai/ha): 19%
- Obs % visual injury ([4]; RR-BRSNN, florpyrauxifen-benzyl alone 2.5 g ai/ha): 6%
- Obs % visual injury ([4]; RR-BRSNN, florpyrauxifen-benzyl alone 5 g ai/ha): 9%
- Obs % visual injury ([4]; RR-BRSNN, florpyrauxifen-benzyl alone 10 g ai/ha): 19%
- % Visual Injury Obs [4, 6]: 6%
- % Visual Injury RR-BRSNN Obs [4, 6]: 6%
- % Visual Injury Obs [4, 7]: 9%
- % Visual Injury RR-BRSNN Obs [4, 7]: 9%
- % Visual Injury Obs [4, 8]: 19%
- % Visual Injury RR-BRSNN Obs [4, 8]: 19%
- Obs % visual injury RR-BRSNN [4, 9]: 6%
- Obs % visual injury RR-BRSNN [4, 10]: 9%
- Obs % visual injury RR-BRSNN [4, 11]: 19%
- % Visual Injury Obs ([5]; BRSAG, 2.5 g ai/ha): 5%
- % Visual Injury Obs ([5]; BRSAG, 5 g ai/ha): 3%
- % Visual Injury Obs ([5]; BRSAG, 10 g ai/ha): 7%
- Obs % visual injury ([5]; BRSAG, florpyrauxifen-benzyl alone 2.5 g ai/ha): 5%
- Obs % visual injury ([5]; BRSAG, florpyrauxifen-benzyl alone 5 g ai/ha): 3%
- Obs % visual injury ([5]; BRSAG, florpyrauxifen-benzyl alone 10 g ai/ha): 7%
- % Visual Injury BRSAG Obs [5, 6]: 5%
- % Visual Injury Obs [5, 6]: 5%
- % Visual Injury BRSAG Obs [5, 7]: 3%
- % Visual Injury Obs [5, 7]: 3%
- % Visual Injury BRSAG Obs [5, 8]: 7%
- % Visual Injury Obs [5, 8]: 7%
- Obs % visual injury BRSAG [5, 9]: 5%
- Obs % visual injury BRSAG [5, 10]: 3%
- Obs % visual injury BRSAG [5, 11]: 7%
- % Visual Injury BRSAG Obs [5, 12]: 3% and 7% and 5%
